From patent US5578477A, “Identification and characterization of inhibtors of protein farnesyltransferase” (Arch Development Corporation, priority 1993, dated 1996)
Blank lines part the entries; values can stand above or below the molecule they belong to. Peptide text beside a SMILES is read from it.

Assays:
[1] = target: T1, yeast FTase (Saccharomyces cerevisiae, UniProt P22007+P29703); assay: Prenyltransferase (FTase) assay with [3H]Fpp and GST-CIIS, purified yeast FTase; assay type: biochemical; conditions: for inhibition of FTase activity by salts: 100 mM salt
T1 construct: FTase was purified from SP1 cells carrying plasmids pBH28 and YEpDPR1 as described herein; made in house; host or cells: Saccharomyces cerevisiae SP1 carrying YEpDPR1 and pBH28
T1 sequence (P22007 1-431): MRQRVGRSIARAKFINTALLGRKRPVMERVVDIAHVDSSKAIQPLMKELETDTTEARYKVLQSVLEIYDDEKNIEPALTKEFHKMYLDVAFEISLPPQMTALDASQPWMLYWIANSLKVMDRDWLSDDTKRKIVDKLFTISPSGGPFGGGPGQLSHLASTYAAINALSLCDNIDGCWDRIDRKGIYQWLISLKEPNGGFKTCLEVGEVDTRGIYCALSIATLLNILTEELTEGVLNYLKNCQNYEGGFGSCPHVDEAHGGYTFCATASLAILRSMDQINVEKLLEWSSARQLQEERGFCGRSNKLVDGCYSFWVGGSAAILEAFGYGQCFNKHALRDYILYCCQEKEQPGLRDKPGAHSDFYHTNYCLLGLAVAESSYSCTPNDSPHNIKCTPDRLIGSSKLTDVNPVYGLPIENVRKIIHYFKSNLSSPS
T1 sequence (P29703 1-316): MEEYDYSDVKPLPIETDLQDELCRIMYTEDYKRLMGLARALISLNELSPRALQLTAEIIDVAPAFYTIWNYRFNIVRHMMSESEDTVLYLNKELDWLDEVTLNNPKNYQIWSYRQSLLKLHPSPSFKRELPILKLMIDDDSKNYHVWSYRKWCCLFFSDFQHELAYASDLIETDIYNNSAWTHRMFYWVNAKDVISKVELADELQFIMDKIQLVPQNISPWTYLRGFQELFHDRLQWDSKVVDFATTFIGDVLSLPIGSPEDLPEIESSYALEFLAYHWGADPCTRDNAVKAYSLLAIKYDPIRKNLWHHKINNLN
Procedure: Prenyltransferase assays were performed essentially as described in Goodman et al., 1990; Finegold et al., 1991. Briefly, the reaction mixture (20 μl) contained 50 mM potassium phosphate, pH 7.4 (or 50 mM Tris/HCl, pH 8.0), 10 mMMgCl2, 5 mM DTT, 5 μM ZnCl2, 0.8-1.12 μM [^3 H] farnesyl pyrophosphate (Fpp) (20 Ci/mmol; New England Nuclear) or [^3 H] geranylgeranyl pyrophosphate (GGpp) (20 Ci/mmol; New England Nuclear, Boston, Mass.), 19 μg of GST-CIIS or 30 μg of GST-CIIL protein and enzymes. Incubation was carried out at 37° C., and the radioactivity incorporated was determined by spotting the reaction mixture onto a filter paper, treating with 10% trichloroacetic acid, followed by ethanol and acetone washing.
Reaction mixture (20 μl) for results shown in open squares contained 1.12 μM [^3 H] Fpp, 4.38 ng FTase, 19 μM GST-CIIS, 0.1 mM EDTA and the indicated concentration of MgCl2. Reaction mixtures (20 μl) for results shown in closed diamond contained 0.1 mM ZnCl2 in addition to the above. Incubation was carried out for 10 minutes at 37° C. and radioactivity incorporated was determined as described herein.
Substrate specificity of yeast FTase was investigated by comparing incorporation of Fpp or GGpp into two different substrate proteins, GST-CIIS (.quadrature.) and GST-CIIL (.circle-solid.). […] The reaction mixture (20 μl) contained 1.12 μM [^3 H] Fpp, 20 ng FTase, and the indicated concentrations of either GST-CIIS or GST-CIIL1 protein. Incubations were carried out for 10 minutes at 37° C. and the radioactivity incorporated was measured as described herein.
Dilution of the peptides was made in 10 mM DTT. Incubation was carried out for 10 minutes at 37° C. and the radioactivity incorporated was determined as described herein.

[2] = target: T2, PGGT I (Bos taurus, UniProt P29702+Q5EAD5); assay: PGGT assay using GST-CIIL protein and [3H]GGpp; assay type: biochemical, bovine
T2 construct: PGGT purified from bovine brain was a gift of Drs; M. Gelb and K. Yokoyama; tissue gift of Drs; M. Gelb and K. Yokoyama (Univ. of Washington); host or cells: bovine brain
Procedure: (§1) Farnesyltransferase assay. FTase from S. cerevisiae was purified from yeast cells overexpressing DPR1 and RAM2 as described herein. Rat brain FTase was partially purified by the method described by Reiss et al. PGGT purified from bovine brain was a gift of Drs. M. Gelb and K. Yokoyama (Univ. of Washington). FTase assays were carried out using RAS2CT1 protein and [^3 H]Fpp according to the method described herein except that Tris-HCl(pH8) was used instead of phosphate buffer. PGGT assays were carried out using GST-CIIL protein and [^3 H]GGpp as described herein except that Tris-HCl(pH7.4) was used instead of phosphate buffer. […] Incubation was carried out at 37° C.
FIG. 6B compares the effect of UCF1-C on PGGT I and PFT.

[3] = target: T3, yeast PFT (Saccharomyces cerevisiae, UniProt P22007+P29703); assay: Farnesyltransferase assay using RAS2CT1 protein and [3H]Fpp, without dithiothreitol; assay type: biochemical, S. cerevisiae
T3 construct: FTase was purified from SP1 cells carrying plasmids pBH28 and YEpDPR1 as described herein; made in house; host or cells: Saccharomyces cerevisiae SP1 carrying YEpDPR1 and pBH28
T3 sequence (P22007 1-431): T1 sequence (P22007 1-431)
T3 sequence (P29703 1-316): T1 sequence (P29703 1-316)
Procedure: as §1
Inhibition of Farnesyltransferase.
To investigate the mechanism of inhibition by UCF1-C, kinetic analyses were carried out. […] The same Km value was observed when the Linewaver-Burke plot was analyzed under different ras and UCF1-C concentrations (.quadrature.=0 μM, .tangle-solidup.=10 μM, and .box-solid.=20 μM) in the presence of a constant concentration of Fpp.

Molecule: O=C(O)CN(CCN(CC(=O)O)CC(=O)O)CC(=O)O [EDTA]
effect of EDTA addition on FTase activity [1]: dramatic inhibition

Molecule: CC(C)=CCC/C(C)=C/CC/C(C)=C/COP(=O)(O)OP(=O)(O)O [Fpp, farnesyl pyrophosphate]
Km ([1]; secondary plots, substrates Fpp and GST-CIIS varied): 8.1 µM

Molecule: [Cl-].[K+] [KCl]
inhibition of FTase activity by salts [1]: Approximately 50%

Molecule: [Cl-].[Li+] [LiCl]
inhibition of FTase activity by salts [1]: Approximately 50%

IC50 [1]: 10 µM
Molecule: CSCC[C@H](NC(=O)[C@H](CC(C)C)NC(=O)[C@@H](NC(=O)[C@H](CS)NC(=O)[C@H](CS)NC(=O)[C@@H](NC(=O)[C@H](CO)NC(=O)[C@H](CC(N)=O)NC(=O)[C@H](CO)NC(=O)[C@@H](N)CC(N)=O)C(C)C)[C@@H](C)O)C(=O)O [MG13, NSNSVCCTLM] (H-NSNSVCCTLM-OH)

Molecule: [Cl-].[Na+] [NaCl]
inhibition of FTase activity by salts [1]: Approximately 50%

PGGT I activity still detectable ([2]; 1 mM concentration): approximately 30%
IC50 ([2]; GST-CIIL, [3H]GGpp, Tris-HCl pH 7.4, read-out: IC50 for PGGT I inhibition): 180 µM
mechanism of inhibition with respect to Fpp ([3]; Lineweaver-Burk, changes Km for Fpp, not Vmax): competitive inhibitor
mechanism of inhibition with respect to ras protein ([3]; Lineweaver-Burk, same Km for RAS2, constant Fpp): non-competitive inhibitor
IC50 ([3]; RAS2CT1, [3H]Fpp, Tris-HCl pH 8, no dithiothreitol, 37° C.): 5 µM
Ki ([3]; secondary plot of slopes against UCF1-C concentration, Fpp varied, constant ras): 1.2 µM
Molecule: CCCC[C@@H](C)/C=C(C)/C=C(\C)C(=O)NC1=C[C@@](O)(/C=C/C=C/C=C/C(=O)NC2=C(O)CCC2=O)[C@@H]2O[C@@H]2C1=O [UCF1-C]

Molecule: EHWSYGLRPG [LHRH]
inhibition of FTase activity by peptide (in words) ([1]; control peptides of the same size, unrelated sequences): little inhibition
